Some test systems named below: ACHN renal; NCI-H23 lung; HOP-62 NSCLC; SW-620 colon; KM12 colon; OVCAR-3 ovarian; HCT-116 colon; M14 melanoma; OVCAR-4 ovarian; HCC-2998 colon.
Holding throughout (experiment): NCI-60 cell line screen, 48 h

For 14 compounds, GI50 and TGI results are on record in PubChem BioAssay (NCI).

Where “and” joins values, the source holds several entries; their conditions need not be identical. Identical values can stand only once.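 The compound was tested at five concentrations on cells cultured in 96-well plates, with a 48-hour exposure period. At the GI50, growth is halved. TGI: total growth inhibition.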

Turning to `Cc1cc(Cl)ccc1NC(=O)NC(C)(C)COC(=O)Nc1cccc(Cl)c1`, the GI50 in the assay on ACHN renal is 5.6 µM; in the assay on NCI-H23 lung, 3.66 µM; in the assay on HOP-62 NSCLC, 14.1 µM; in the assay with SW-620 colon, 7.45 µM; in the assay on KM12 colon, 3.78 µM; in the assay on OVCAR-3 ovarian, 3.78 µM. Besides, the GI50 in the assay with HCT-116 colon was 6.3 µM; with M14 melanoma, 8.38 µM; in the assay on OVCAR-4 ovarian it was 6.55 µM; with HCC-2998 colon, 11.3 µM. The TGI is more than 100 µM in the assay with ACHN renal; 28.4 µM with NCI-H23 lung; 50.5 µM in the assay with HOP-62 NSCLC; more than 100 µM in the assay on SW-620 colon; 17.6 µM in the assay on KM12 colon; 12.7 µM with OVCAR-3 ovarian. For the same compound, the TGI is more than 100 µM in the assay on HCT-116 colon, more than 100 µM in the assay on M14 melanoma, 90.6 µM in the assay with OVCAR-4 ovarian and more than 100 µM in the assay on HCC-2998 colon.

Take `O=C(O)c1ccc2cccnc2c1O`: the GI50 in the assay on ACHN renal was 1.7 µM; in the assay on NCI-H23 lung it was 1.05 µM; in the assay with HOP-62 NSCLC it was 1.37 µM; in the assay with SW-620 colon, 2 µM; in the assay with KM12 colon it was 2.02 µM; in the assay on OVCAR-3 ovarian, 1.68 µM. The GI50 in the assay on HCT-116 colon is 0.532 µM; in the assay with M14 melanoma, 1.53 µM; in the assay on OVCAR-4 ovarian, 0.411 µM; in the assay with HCC-2998 colon, 2.32 µM. Moreover, the TGI in the assay with ACHN renal was 11.3 µM; in the assay with NCI-H23 lung it was 29.1 µM; with HOP-62 NSCLC, 41.6 µM; in the assay with SW-620 colon it was more than 100 µM; with KM12 colon, 25 µM; in the assay on OVCAR-3 ovarian it was 5.22 µM. Further, the TGI in the assay with HCT-116 colon is 25 µM; in the assay on M14 melanoma, 26.6 µM; with OVCAR-4 ovarian, more than 100 µM; with HCC-2998 colon, 37.5 µM.

With `COc1cc2c3c(c1OC)Oc1ccc(cc1)CC1c4c(cc(OC)c(OC)c4Oc4ccc(cc4)CC3N(C)CC2)CCN1C` (stereo unspecified), the TGI is more than 100 µM in the assay with ACHN renal; more than 100 µM in the assay on NCI-H23 lung; 61.4 µM in the assay with HOP-62 NSCLC; 30.4 µM in the assay on SW-620 colon; more than 100 µM in the assay with KM12 colon; 44.7 µM in the assay on OVCAR-3 ovarian. The TGI in the assay on HCT-116 colon turned out to be 27.2 µM; in the assay with M14 melanoma, 33.2 µM; with OVCAR-4 ovarian, 36.3 µM; in the assay on HCC-2998 colon, 28 µM.

Consider `O=C(Nc1ccccc1C(=O)O)C(=O)C(C(=O)c1ccccc1-c1ccccc1)C1OC(=O)c2ccccc21` (stereo unspecified), for which the TGI with ACHN renal was 92.3 µM; in the assay on NCI-H23 lung, 40.5 µM; in the assay with HOP-62 NSCLC it was 37.8 µM; in the assay on SW-620 colon, 56.6 µM; in the assay on KM12 colon, 33.6 µM; with OVCAR-3 ovarian, 34.3 µM. For the same compound, the TGI with HCT-116 colon was 36.5 µM; in the assay with M14 melanoma it was 33.4 µM; in the assay with OVCAR-4 ovarian it was more than 100 µM; in the assay on HCC-2998 colon it was 30.6 µM.

For the compound `COC(=O)C12C3C4C1C1C2C3C41C(=O)N(C(C)C)C(C)C` (stereo unspecified), the TGI in the assay with ACHN renal, in the assay with NCI-H23 lung, in the assay on HOP-62 NSCLC, in the assay on SW-620 colon, in the assay with KM12 colon and in the assay with OVCAR-3 ovarian was more than 100 µM throughout. Moreover, the TGI with HCT-116 colon, in the assay on M14 melanoma, in the assay with OVCAR-4 ovarian and with HCC-2998 colon was more than 100 µM each time.

`O[C@H](CN1CC1)[C@@H](O)CN1CC1`: the GI50 with ACHN renal is 0.499 µM; in the assay on NCI-H23 lung, 3.24 µM; in the assay with HOP-62 NSCLC it was 3.41 µM; in the assay with SW-620 colon, 4.61 µM; with KM12 colon, 11.7 µM; in the assay on OVCAR-3 ovarian it was 13.3 µM. For the same compound, the GI50 in the assay with HCT-116 colon was 5.83 µM; with M14 melanoma it was 3.77 µM; in the assay with OVCAR-4 ovarian, 15.4 µM; with HCC-2998 colon, 13.8 µM. Further, the TGI in the assay with ACHN renal is 14.7 µM; in the assay on NCI-H23 lung, more than 100 µM; in the assay with HOP-62 NSCLC, 47.2 µM; in the assay on SW-620 colon, more than 100 µM; with KM12 colon, 28.1 µM; with OVCAR-3 ovarian it was 35.2 µM. For the same compound, the TGI with HCT-116 colon is 35.6 µM; in the assay on M14 melanoma, 22.3 µM; in the assay with OVCAR-4 ovarian it was more than 100 µM; in the assay on HCC-2998 colon, 51.3 µM.

Turning to `O=C1OC2C=CC1C1(CCOC1=O)C2` (stereo unspecified), the TGI with ACHN renal, in the assay on NCI-H23 lung, in the assay on HOP-62 NSCLC, in the assay on SW-620 colon, in the assay with KM12 colon and with OVCAR-3 ovarian was more than 100 µM each time. Further, the TGI in the assay on HCT-116 colon, in the assay with M14 melanoma, with OVCAR-4 ovarian and in the assay with HCC-2998 colon was more than 100 µM in each case.

Regarding `Cc1nc2sc(C(=O)Nc3cccc(Cl)c3C)c(N)c2cc1C(C)O` (stereo unspecified), the GI50 was 0.63 µM with ACHN renal; 0.567 µM in the assay on NCI-H23 lung; 0.53 µM in the assay on HOP-62 NSCLC; 0.127 µM with SW-620 colon; 0.175 µM with KM12 colon; 0.114 µM in the assay with OVCAR-3 ovarian. For the same compound, the GI50 in the assay with HCT-116 colon was 0.159 µM; in the assay with M14 melanoma, 0.341 µM; in the assay with OVCAR-4 ovarian, 3.45 µM; in the assay with HCC-2998 colon it was 0.532 µM. Besides, the TGI was more than 50.1 µM in the assay on ACHN renal; more than 56.6 µM in the assay with NCI-H23 lung; more than 100 µM in the assay with HOP-62 NSCLC; more than 54.3 µM in the assay on SW-620 colon; more than 41.1 µM with KM12 colon; more than 33.4 µM with OVCAR-3 ovarian. The TGI in the assay with HCT-116 colon is more than 35.7 µM; in the assay with M14 melanoma it was more than 100 µM; in the assay with OVCAR-4 ovarian it was more than 68.4 µM; in the assay with HCC-2998 colon, 26.3 µM.

As to `O=C(Nc1cccc([N+](=O)[O-])c1)c1cc2ccccc2cc1O`, the GI50 with ACHN renal is 2.03 µM; with NCI-H23 lung, 0.72 µM; in the assay on HOP-62 NSCLC it was 1.19 µM; with SW-620 colon, 2.72 µM; in the assay on KM12 colon it was 2.41 µM; in the assay on OVCAR-3 ovarian it was 0.783 µM. Further, the GI50 in the assay on HCT-116 colon is 0.772 µM; in the assay with M14 melanoma it was 1.58 µM; with OVCAR-4 ovarian, 2.61 µM; in the assay on HCC-2998 colon it was 2.16 µM. The TGI stood at 7.79 µM in the assay with ACHN renal; 3.65 µM in the assay on NCI-H23 lung; 3.72 µM with HOP-62 NSCLC; 17 µM in the assay with SW-620 colon; 6.44 µM in the assay with KM12 colon; 7.33 µM in the assay with OVCAR-3 ovarian. The TGI is 3.17 µM in the assay on HCT-116 colon, 6.68 µM with M14 melanoma, more than 100 µM with OVCAR-4 ovarian and 6.11 µM with HCC-2998 colon.

Take `COc1cc(N=Nc2cccc(S(N)(=O)=O)c2)c2ccccc2c1N`: the TGI with ACHN renal was 30.3 µM; in the assay on NCI-H23 lung, 6.72 µM; in the assay with HOP-62 NSCLC it was 21.8 µM; in the assay on SW-620 colon, more than 95.3 µM; in the assay on KM12 colon, 26.4 µM; in the assay with OVCAR-3 ovarian it was 27.5 µM. Also, the TGI in the assay with HCT-116 colon was determined as 29.2 µM; in the assay with M14 melanoma it was 3.43 µM; with OVCAR-4 ovarian it was 27.8 µM; with HCC-2998 colon, 20.7 µM.

With `c1ccc(-c2[nH]c(-c3ccccc3)c(-c3cnccn3)c2-c2cnccn2)cc1`, the TGI in the assay with ACHN renal, in the assay with NCI-H23 lung, in the assay on HOP-62 NSCLC, in the assay on SW-620 colon, with KM12 colon and with OVCAR-3 ovarian was more than 100 µM in each case. Also, the TGI with HCT-116 colon, in the assay on M14 melanoma, with OVCAR-4 ovarian and in the assay on HCC-2998 colon was more than 100 µM each time.

As to `O=[N+]([O-])c1ccc(NC(=S)N/N=C(\c2ccccc2)c2ccccn2)cc1`, the GI50 was 1.34 µM with ACHN renal; 1.71 µM in the assay on NCI-H23 lung; 1.3 µM in the assay with HOP-62 NSCLC; 0.0303 µM with SW-620 colon; 1.38 µM with M14 melanoma; 2.1 µM with HCC-2998 colon. Besides, the TGI with ACHN renal was 2.62 µM and 2.39 µM; in the assay on NCI-H23 lung, 3.53 µM and 13.3 µM; with HOP-62 NSCLC it was 2.98 µM and 1.62 µM; in the assay with SW-620 colon, 1.93 µM and 2.35 µM; in the assay with KM12 colon, 3.35 µM and 4.12 µM; in the assay on OVCAR-3 ovarian, 1.36 µM and 2.76 µM. Also, the TGI with HCT-116 colon was 3.21 µM; in the assay on M14 melanoma, 2.33 µM and 2.77 µM; with OVCAR-4 ovarian it was 3.42 µM and 3.51 µM; in the assay with HCC-2998 colon, 4.26 µM and 2.83 µM.

On to `C=C1C[C@@H]2[C@H](CC[C@]3(C)C(=O)CC[C@@H]23)[C@@]2(C)C=CC(=O)C=C12`, for which the GI50 in the assay with ACHN renal is 23.5 µM; in the assay on NCI-H23 lung it was 16.5 µM; in the assay with HOP-62 NSCLC, 35.2 µM; in the assay with SW-620 colon, 34.7 µM; with KM12 colon, 30.7 µM; in the assay with OVCAR-3 ovarian it was 26.5 µM. Moreover, the GI50 was 14.7 µM in the assay with HCT-116 colon, 20.4 µM in the assay with M14 melanoma, 42.7 µM with OVCAR-4 ovarian and 18.1 µM in the assay on HCC-2998 colon. The TGI in the assay with ACHN renal was 54.3 µM; in the assay on NCI-H23 lung, 44.3 µM; with HOP-62 NSCLC it was more than 83.1 µM; in the assay on SW-620 colon, more than 100 µM; with KM12 colon, more than 70 µM; in the assay on OVCAR-3 ovarian, more than 66.3 µM. Also, the TGI is 29.9 µM in the assay with HCT-116 colon, more than 48.7 µM in the assay on M14 melanoma, more than 100 µM in the assay with OVCAR-4 ovarian and 33.5 µM in the assay with HCC-2998 colon.

As to `O=C1C(=Cc2ccccc2[N+](=O)[O-])N=C(c2ccccc2)N1n1c(-c2ccccc2)nc2ccccc2c1=O`, the TGI in the assay on ACHN renal is more than 100 µM; in the assay on NCI-H23 lung, 65 µM; in the assay on HOP-62 NSCLC it was more than 100 µM; with SW-620 colon, more than 100 µM; in the assay on KM12 colon, 66.2 µM; in the assay on OVCAR-3 ovarian, more than 100 µM. In addition, the TGI with HCT-116 colon was 33.7 µM; in the assay on M14 melanoma, more than 100 µM; with OVCAR-4 ovarian, more than 100 µM; with HCC-2998 colon, more than 100 µM.
